“And” between values parts separate entries of the source, which are not always exact repeats. Equal entries are not always repeated.
What was measured:
Histamine H3 receptor [1] = target: T1, Histamine H3 receptor (Homo sapiens, UniProt Q9Y5N1)
Description: Displacement of [3H]-n-alpha-methylhistamine from human histamine H3 receptor homogenate after 60 mins by scintillation counting

Histamine H3 receptor [2] = target: T2, Histamine H3 receptor (Rattus norvegicus, UniProt Q9QYN8)
Description: Displacement of [3H]-n-alpha-methylhistamine from rat histamine H3 receptor homogenate after 60 mins by scintillation counting

Liver microsomes = settings: human
Description: Unbound intrinsic clearance in human liver microsomes

in vivo [3] = settings: beagle, dog, plasma, po
Description: AUC (0 to 24 hrs) in po dosed beagle dog administered for 7 days

in vivo [4] = settings: Sprague-Dawley, rat, po
Description: Tmax in po dosed Sprague-Dawley rat administered for 4 days

Homo sapiens [5] = organism: Homo sapiens; assay: Selectivity ratio of Ki for human histamine H1 receptor to Ki for human histamine H3 receptor
in vivo [6] = settings: Sprague-Dawley, rat, po; remark: listed apart in the source
Description: Oral bioavailability in Sprague-Dawley rat

in vivo [7] = settings: beagle, dog, po
Description: Tmax in po dosed beagle dog administered for 7 days

in vitro [8] = settings: human, liver microsomes
Description: Half life in human liver microsomes

in vivo [9] = settings: beagle, dog, po; remark: listed apart in the source
Description: Cmax in po dosed beagle dog administered for 7 days

in vivo [10] = settings: Sprague-Dawley, rat, po; remark: listed apart in the source
Description: Tmax in po dosed Sprague-Dawley rat administered for 14 days

in vivo [11] = settings: Sprague-Dawley, rat, po; remark: listed apart in the source
Description: Toxicity in po dosed Sprague-Dawley rat administered for 14 days

Histamine H3 receptor [12] = target: T2, Histamine H3 receptor; remark: listed apart in the source
Description: Antagonist activity at rat histamine H3 receptor expressed in human HEK293 cells assessed as inhibition of forskolin-induced cAMP release pretreated 10 mins prior forskolin stimulation measured after 4.5 hrs by spectrofluorimetric analysis

Homo sapiens [13] = organism: Homo sapiens; assay: Selectivity ratio of Ki for human histamine H4 receptor to Ki for human histamine H3 receptor
in vivo [14] = settings: Sprague-Dawley, rat, plasma, po
Description: AUC (0 to 24 hrs) in po dosed Sprague-Dawley rat administered for 14 days

in vivo [15] = settings: beagle, dog, po; remark: listed apart in the source
Description: Toxicity in po dosed beagle dog administered for 7 days

Homo sapiens [16] = organism: Homo sapiens; assay: Selectivity ratio of Ki for human histamine H2 receptor to Ki for human histamine H3 receptor
MDR1 (human) = assay: in vitro; settings: dog, MDCK-MDR1
Description: Efflux ratio of permeability across basal to apical side over apical to basolateral side in dog MDCK cells expressing human MDR1

in vitro [17] = settings: human, plasma
Description: Fraction unbound in human plasma

in vivo [18] = settings: Sprague-Dawley, rat, po; remark: listed apart in the source
Description: Cmax in po dosed Sprague-Dawley rat administered for 14 days

Histamine H3 receptor [19] = target: T1, Histamine H3 receptor; remark: listed apart in the source
Description: Antagonist activity at human histamine H3 receptor expressed in human HEK293 cells assessed as inhibition of forskolin-induced cAMP release pretreated 10 mins prior forskolin stimulation measured after 4.5 hrs by spectrofluorimetric analysis

in vitro [20] = settings: rat, plasma
Description: Fraction unbound in rat plasma

in vitro [21] = settings: human, Caco-2
Description: Permeability across apical to basolateral side in human Caco2 cells at 2 uM

[22] = human, thle, 24 h
Description: Toxicity in human THLE cells assessed as drug-induced phospholipid accumulation after 24 hrs by Hoechst staining-based microscopic analysis

Rattus norvegicus [23] = assay: Toxicity in Sprague-Dawley rat assessed as compound-induced phospholipidosis in lung at >= 50 mg/kg, po administered for 14 days; type: organism-based; parameters: dose 50 mg/kg, route oral; settings: in vivo, 336 h
Rattus norvegicus [24] = assay: Toxicity in Sprague-Dawley rat assessed as compound-induced phospholipidosis in liver at >= 50 mg/kg, po administered for 14 days; type: organism-based; parameters: dose 50 mg/kg, route oral; settings: in vivo, 336 h
[25] = AUC in Sprague-Dawley rat at >[…] mg/kg, po administered for 14 days measured on day 1; type: ADME, organism-based; settings: plasma, 50 mg/kg
Rattus norvegicus [26] = assay: Toxicity in Sprague-Dawley rat assessed as decrease in body weight at 300 mg/kg, po administered for 14 days; type: organism-based; parameters: dose 300 mg/kg, route oral; settings: in vivo, 336 h
[27] = AUC in Sprague-Dawley rat at 300 mg/kg, po administered for 14 days; type: ADME, organism-based; parameters: dose 300 mg/kg, route oral; settings: plasma
Rattus norvegicus [28] = assay: Toxicity in Sprague-Dawley rat assessed as salivation at >= 100 mg/kg, po administered for 14 days; type: organism-based; parameters: dose 100 mg/kg, route oral; settings: in vivo, 336 h
[29] = Ratio of drug uptake in brain to plasma of Sprague-Dawley rat; type: ADME; settings: read-out: BPR
Canis familiaris [30] = assay: Toxicity in beagle dog assessed as convulsion at 30 mg/kg, po administered for 7 days measured on day 3; type: organism-based, Canis lupus familiaris; parameters: dose 30 mg/kg, route oral; settings: in vivo, 168 h
Rattus norvegicus [31] = assay: Toxicity in Sprague-Dawley rat assessed as decrease in food intake at 300 mg/kg, po administered for 14 days; type: organism-based; parameters: dose 300 mg/kg, route oral; settings: in vivo, 336 h
[32] = AUC in Sprague-Dawley rat at >[…] mg/kg, po administered for 4 days; type: ADME, organism-based; settings: plasma, 50 mg/kg
Canis familiaris [33] = assay: Toxicity in beagle dog assessed as compound-induced cadiomyocyte vacuole formation at 25 mg/kg, po administered for 7 days; type: organism-based, Canis lupus familiaris; parameters: dose 25 mg/kg, route oral; settings: in vivo, 168 h
[34] = Toxicity in po dosed Sprague-Dawley rat administered for 4 days; type: organism-based; settings: in vivo
[35] = target: Voltage-gated inwardly rectifying potassium channel KCNH2 (Homo sapiens, UniProt Q12809); assay: Inhibition of human Erg expressed in human HEK293 cells; type: cell-based
Sequence of Voltage-gated inwardly rectifying potassium channel KCNH2 (Q12809 whole entry): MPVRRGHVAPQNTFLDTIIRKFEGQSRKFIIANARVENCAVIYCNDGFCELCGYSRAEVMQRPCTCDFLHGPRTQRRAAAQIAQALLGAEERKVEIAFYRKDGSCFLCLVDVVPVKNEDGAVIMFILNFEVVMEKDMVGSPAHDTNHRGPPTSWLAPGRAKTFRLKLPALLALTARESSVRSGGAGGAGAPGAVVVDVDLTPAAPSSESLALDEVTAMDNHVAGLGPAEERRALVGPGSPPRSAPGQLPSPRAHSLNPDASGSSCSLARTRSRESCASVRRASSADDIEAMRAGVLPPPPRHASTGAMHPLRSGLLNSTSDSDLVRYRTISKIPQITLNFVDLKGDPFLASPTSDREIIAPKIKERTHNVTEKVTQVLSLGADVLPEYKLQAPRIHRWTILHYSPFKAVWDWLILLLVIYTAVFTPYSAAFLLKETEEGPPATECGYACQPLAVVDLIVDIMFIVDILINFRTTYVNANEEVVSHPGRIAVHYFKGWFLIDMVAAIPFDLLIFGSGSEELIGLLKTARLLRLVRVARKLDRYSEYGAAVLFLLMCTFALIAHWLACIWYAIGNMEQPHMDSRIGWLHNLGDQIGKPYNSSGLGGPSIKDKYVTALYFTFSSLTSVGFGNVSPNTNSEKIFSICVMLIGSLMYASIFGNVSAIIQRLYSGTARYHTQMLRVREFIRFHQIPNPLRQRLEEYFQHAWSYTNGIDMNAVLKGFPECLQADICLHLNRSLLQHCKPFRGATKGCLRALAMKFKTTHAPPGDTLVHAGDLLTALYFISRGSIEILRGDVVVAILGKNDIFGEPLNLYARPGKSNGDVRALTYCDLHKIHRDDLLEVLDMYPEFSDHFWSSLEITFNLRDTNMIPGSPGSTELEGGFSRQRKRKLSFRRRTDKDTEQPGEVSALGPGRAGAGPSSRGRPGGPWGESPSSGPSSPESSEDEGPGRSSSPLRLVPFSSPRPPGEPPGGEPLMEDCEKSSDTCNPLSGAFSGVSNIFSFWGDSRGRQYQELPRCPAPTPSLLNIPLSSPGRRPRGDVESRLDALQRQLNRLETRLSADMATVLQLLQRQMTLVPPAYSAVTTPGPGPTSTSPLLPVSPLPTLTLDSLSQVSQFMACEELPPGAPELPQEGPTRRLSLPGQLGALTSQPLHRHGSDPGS

[36] = AUC (0 to 24 hrs) in po dosed Sprague-Dawley rat administered for 4 days; type: ADME, organism-based; parameters: time < 24 hr, route oral; settings: plasma
Rattus norvegicus [37] = assay: Toxicity in Sprague-Dawley rat assessed as compound-induced phospholipidosis at 5 to 30 mg/kg, po administered for 14 days; type: organism-based; parameters: dose 5-30 mg/kg, route oral; settings: in vivo, 336 h
[38] = AUC in Sprague-Dawley rat at 5 mg/kg, po administered for 4 days; type: ADME, organism-based; parameters: dose 5 mg/kg, route oral; settings: plasma
[39] = Cmax in Sprague-Dawley rat at 400 mg/kg, po administered for 4 days; type: ADME, organism-based; parameters: dose 400 mg/kg, route oral; settings: in vivo
[40] = Cmax in po dosed Sprague-Dawley rat administered for 4 days; type: ADME, organism-based; parameters: route oral; settings: in vivo
Rattus norvegicus [41] = assay: Toxicity in Sprague-Dawley rat assessed as compound-induced phospholipidosis at 30 mg/kg, po administered for 14 days; type: organism-based; parameters: dose 30 mg/kg, route oral; settings: in vivo, 336 h
Rattus norvegicus [42] = assay: Toxicity in Sprague-Dawley rat assessed as compound-induced phospholipidosis in kidney at >= 50 mg/kg, po administered for 4 days; type: organism-based; parameters: dose 50 mg/kg, route oral; settings: in vivo, 96 h
Rattus norvegicus [43] = assay: Toxicity in Sprague-Dawley rat assessed as mortality at 400 mg/kg, po administered for 4 days; type: organism-based; parameters: dose 400 mg/kg, route oral; settings: in vivo, 96 h
[44] = Apparent permeability across apical to basolateral side in MDCK cells at 2 uM; type: ADME, cell-based, Canis lupus familiaris; settings: dog
[45] = Genotoxicity in micronucleus
Canis familiaris [46] = assay: Toxicity in beagle dog assessed as compound-induced cadiomyocyte vacuole formation at 10 mg/kg, po administered for 7 days; type: organism-based, Canis lupus familiaris; parameters: dose 10 mg/kg, route oral; settings: in vivo, 168 h
Rattus norvegicus [47] = assay: Toxicity in Sprague-Dawley rat assessed as compound-induced phospholipidosis in lung at >= 50 mg/kg, po administered for 4 days; type: organism-based; parameters: dose 50 mg/kg, route oral; settings: in vivo, 96 h
[48] = AUC in beagle dog at 30 mg/kg, po administered for 7 days; type: ADME, organism-based, Canis lupus familiaris; parameters: dose 30 mg/kg, route oral; settings: plasma
[49] = AUC in beagle dog at 50 mg/kg, po administered for 7 days measured on day 1; type: ADME, organism-based, Canis lupus familiaris; parameters: dose 50 mg/kg, route oral; settings: plasma
[50] = AUC in Sprague-Dawley rat at 10 to 300 mg/kg, po administered for 14 days measured on day 1; type: ADME, organism-based; parameters: dose 10-300 mg/kg, route oral; settings: plasma
Canis familiaris [51] = assay: Toxicity in beagle dog assessed as convulsion at 50 mg/kg, po administered for 7 days measured on day 2; type: organism-based, Canis lupus familiaris; parameters: dose 50 mg/kg, route oral; settings: in vivo, 168 h
in vivo [52] = settings: beagle, dog, po, 50 mg/kg
Canis familiaris [53] = assay: Toxicity in beagle dog assessed as testicular degradation at 30 mg/kg, po administered for 7 days; type: organism-based, Canis lupus familiaris; parameters: dose 30 mg/kg, route oral; settings: in vivo, 168 h
Canis familiaris [54] = assay: Toxicity in beagle dog assessed as compound-induced cadiomyocyte vacuole formation at 30 mg/kg, po administered for 7 days; type: organism-based, Canis lupus familiaris; parameters: dose 30 mg/kg, route oral; settings: in vivo, 168 h

T1 sequence (Q9Y5N1 whole entry): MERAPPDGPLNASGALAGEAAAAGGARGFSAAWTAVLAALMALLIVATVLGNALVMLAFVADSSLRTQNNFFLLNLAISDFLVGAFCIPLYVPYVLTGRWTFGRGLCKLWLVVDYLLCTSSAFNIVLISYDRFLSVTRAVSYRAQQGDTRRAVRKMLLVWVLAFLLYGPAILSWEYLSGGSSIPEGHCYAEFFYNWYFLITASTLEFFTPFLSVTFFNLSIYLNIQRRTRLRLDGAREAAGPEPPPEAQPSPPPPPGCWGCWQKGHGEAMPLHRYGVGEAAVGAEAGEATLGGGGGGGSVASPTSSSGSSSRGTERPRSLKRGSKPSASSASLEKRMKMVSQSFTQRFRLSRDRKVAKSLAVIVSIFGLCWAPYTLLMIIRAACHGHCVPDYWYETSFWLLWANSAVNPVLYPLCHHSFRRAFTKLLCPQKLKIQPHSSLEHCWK
T2 sequence (Q9QYN8 whole entry): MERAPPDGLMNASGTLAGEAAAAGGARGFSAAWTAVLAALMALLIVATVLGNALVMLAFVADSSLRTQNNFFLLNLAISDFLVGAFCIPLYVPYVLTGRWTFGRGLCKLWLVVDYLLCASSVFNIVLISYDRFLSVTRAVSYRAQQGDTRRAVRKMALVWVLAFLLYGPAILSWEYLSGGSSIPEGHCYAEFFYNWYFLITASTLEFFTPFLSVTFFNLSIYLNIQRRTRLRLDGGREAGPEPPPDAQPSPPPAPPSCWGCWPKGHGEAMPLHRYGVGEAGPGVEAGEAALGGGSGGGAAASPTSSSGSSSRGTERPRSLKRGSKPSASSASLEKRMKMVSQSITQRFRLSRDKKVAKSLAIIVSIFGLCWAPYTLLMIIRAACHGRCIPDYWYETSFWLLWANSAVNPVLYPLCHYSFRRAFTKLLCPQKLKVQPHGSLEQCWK
Description for physchem: Dissociation constant, pKa of the compound

Row | SMILES | Ki (Histamine H3 receptor [1]) | Ki (Histamine H3 receptor [2]) [nM] | CL free (Liver microsomes) [mL/min/kg] | AUC at 24 h (in vivo [3]) [ng·h/mL] | Tmax at 96 h (in vivo [4]) [min] | Tmax at 168 h (in vivo [7]) [min] | half-life (in vitro [8]) [min] | Cmax at 168 h (in vivo [9]) [µM] | Tmax at 336 h (in vivo [10]) [min] | MTD at 336 h (in vivo [11]) [mg/kg] | pKa (physchem) | Ki (Histamine H3 receptor [12]) [nM] | AUC at 24 h (in vivo [14]) [ng·h/mL] | MTD at 168 h (in vivo [15]) [mg/kg] | efflux ratio (MDR1 (human)) | fraction unbound (in vitro [17]) | Cmax at 336 h (in vivo [18]) [µM] | Ki (Histamine H3 receptor [19]) | fraction unbound (in vitro [20]) | Papp A→B at 2 µM (in vitro [21]) [×10⁻⁶ cm/s] | also measured
1 | CN(C)Cc1ccc(-c2ccc(CN(C)C)cc2)cc1 | 1.3 nM | 9.3 | 219 | – | – | – | – | – | – | – | – | – | – | – | – | – | – | – | – | – | –
2 | CC(C)CNC(=O)[C@H]1C[C@@](F)(c2ccc(CN3CCCC3)c(F)c2)C1 [PF-03654764] | 1.4 nM | 19 | < 5 | 18200 | 30 | 30 | > 120 | 18 | 30 | ≥ 300 | 9.2 | 7.9 | 67400 | ≥ 15 | 0.96 | 0.34 | 23 | 1.2 nM and 1.05 nM | 0.56 | 38.8 | Ratio Ki (Homo sapiens [5]): > 1000; bioavailability (in vivo [6]): 20.2%; Ratio Ki (Homo sapiens [13]): > 1000; Ratio Ki (Homo sapiens [16]): > 1000
3 | c1cnc(OC[C@H]2C[C@H](c3ccc(CN4CCCC4)cc3)C2)nc1 | 8.7 nM | 82 | < 8 | – | 30 | 30 | > 120 | – | 30 | ≥ 5 | 9.8 | 79 | 1280 | – | 0.9 | 0.44 | 0.402 | 12 nM | 0.47 | 32.5 | MED [22]: 119.5 µM; Activity (Rattus norvegicus [23]): Toxic; Activity (Rattus norvegicus [24]): Toxic; AUC at 336 h [25]: 21300 ng·h/mL
4 | CCNC(=O)[C@H]1C[C@@](F)(c2ccc(CN3CCCC3)c(F)c2)C1 [PF-03654746] | 2.3 nM | 37 | < 5 | 18900 | 30 | 30 | > 120 | 13 | 30 | 30 | 9.2 | 8.9 | 189000 | ≥ 15 | 1.1 | 0.66 | 43.5 | 1.7 nM | 0.7 | 44.7 | MED [22]: 302.4 µM; Ratio Ki (Homo sapiens [5]): > 1000; bioavailability (in vivo [6]): 25.9%; Activity (Rattus norvegicus [26]): Toxic; AUC at 336 h [27]: 189000 ng·h/mL; Ratio Ki (Homo sapiens [13]): > 1000; Activity (Rattus norvegicus [28]): Toxic; Ratio Ki (Homo sapiens [16]): > 1000; Kp [29]: 2.1; Activity (Canis familiaris [30]): Toxic; Activity (Rattus norvegicus [31]): Toxic
5 | c1cc([C@H]2C[C@@H](CN3CCOCC3)C2)ccc1CN1CCCC1 | 2.2 nM | 7.7 | < 8 | 740 | 30 | 30 | > 120 | 0.148 | 30 | ≥ 30 | 7.7 | 3.5 | 15500 | < 10 | < 0.95 | 0.78 | 5 | 0.89 nM | 0.72 | 8.2 | AUC at 96 h [32]: 17400 ng·h/mL; Activity (Canis familiaris [33]): Toxic; MTD at 96 h [34]: ≥ 5 mg/kg; IC50 [35]: 300000 nM; AUC at 24 h [36]: 1240 ng·h/mL; Activity (Rattus norvegicus [37]): Toxic; AUC at 96 h [38]: 1240 ng·h/mL; Cmax [39]: 3920 ng/mL; Cmax [40]: 0.302 µM; Activity (Rattus norvegicus [41]): Non-toxic; Activity (Rattus norvegicus [42]): Toxic; Activity (Rattus norvegicus [43]): Toxic; Papp A→B at 2 µM [44]: > 10 ×10⁻⁶ cm/s; Activity [45]: Non-toxic; Activity (Canis familiaris [46]): Toxic; Activity (Rattus norvegicus [47]): Toxic
6 | CC(=O)N(C)C[C@H]1C[C@H](c2ccc(CN3CCCC3)c(Cl)c2)C1 | 14 nM and 12.9 nM | 160 | < 8 | 2910 | 30 | 30 | > 120 | 5.13 | 30 | ≥ 300 | 9.3 | 21 | 4440 | < 30 | 1.27 | 0.24 | 6.29 | 3.3 nM | – | 53.4 | AUC at 168 h [48]: 2910 ng·h/mL; MED [22]: 245.3 µM; AUC at 168 h [49]: 4780 ng·h/mL; AUC at 336 h [50]: ≤ 4440 ng·h/mL; Activity (Canis familiaris [51]): Toxic; Cmax (in vivo [52]): 3200 ng/mL; Activity (Canis familiaris [53]): Toxic; Activity (Canis familiaris [54]): Toxic

Reference: ChEMBL document CHEMBL2203251, “Discovery of two clinical histamine H(3) receptor antagonists: trans-N-ethyl-3-fluoro-3-[3-fluoro-4-(pyrrolidinylmethyl)phenyl]cyclobutanecarboxamide (PF-03654746) and trans-3-fluoro-3-[3-fluoro-4-(pyrrolidin-1-ylmethyl)phenyl]-N-(2-methylpropyl)cyclobutanecarboxamide (PF-03654764)” (J Med Chem, 2011)
